Consider eight molecules from DBAASP.

Some test systems named below: Listeria grayi DSM 20601; Escherichia coli D31; Escherichia coli HB101; Salmonella typhimurium; Bacillus subtilis; Staphylococcus aureus; Pseudomonas aeruginosa; Streptococcus mutans; Streptococcus pyogenes; Streptococcus agalactiae; Klebsiella pneumoniae; Candida albicans C627.
Common to all, as to test: ≥ marks a high value that may be exact or a test limit, other limits are often not marked, values filed in µg/mL are converted to µM
For experiment [1], the system named is Streptococcus mutans UA159.
The test system of experiment [2] is Streptococcus sanguinis ATCC 10556.
The test system of experiment [3] is Streptococcus sobrinus ATCC 6715.
Experiment [4] concerns Listeria monocytogenes DSM 20600.
Experiment [5] deals with Micrococcus luteus DSM 20030.
Experiment [6] has as its system Listeria fleischmannii DSM 24998.
Experiment [7] has as its system Candida albicans ATCC 36232.
Experiment [8] concerns Escherichia coli ATCC 2592.
Experiment [9] has as its system Micrococcus luteus ATCC 9341.
Experiment [10] has as its system Pseudomonas aeruginosa ATCC 9027.
In experiment [11] the test system is Staphylococcus aureus 1550.
The subject of experiment [12] is Staphylococcus aureus ATCC 6538.
For experiment [13], the system named is Streptococcus pneumoniae ATCC 49619.
For experiment [14], the system named is Bacillus subtilis BGSC 1A1.
Experiment [15] relates to Escherichia coli ATCC 25922.
Experiment [16] deals with Pseudomonas aeruginosa ATCC 27853.
The test system of experiment [17] is Mycobacterium tuberculosis mc2-6020.
The subject of experiment [18] is Mycobacterium tuberculosis mc2-6230.
The subject of experiment [19] is Staphylococcus aureus ATCC 25923.
Experiment [20] concerns Staphylococcus aureus USA 300.
Experiment [21] concerns Staphylococcus epidermidis ATCC 12228.
In experiment [22] the test system is Staphylococcus aureus USA 100.
The subject of experiment [23] is Candida albicans ATCC 90028.
For experiment [24], the system named is Staphylococcus aureus ATCC 29737.
Experiment [25] has as its system Candida albicans ATCC 64550.
For experiment [26], the system named is Pseudomonas aeruginosa LES400.
In experiment [27] the test system is Pseudomonas aeruginosa H103.
In experiment [28] the test system is Enterococcus faecium mic80.
In experiment [29] the test system is Pseudomonas aeruginosa 213.
Experiment [30] concerns Escherichia coli ESBL 63103.
The test system of experiment [31] is Staphylococcus aureus C623.
Experiment [32] concerns Mycobacterium tuberculosis CSU87.
The test system of experiment [33] is Mycobacterium tuberculosis H37Rv.

Values after ≈ are worked out from the molar mass of the structure shown. Where only a bound is given, the exact number is not on record here.

For `NCCCC[C@H](NC(=O)[C@H](Cc1c[nH]c2ccccc12)NC(=O)[C@H](CCCCN)NC(=O)[C@H](CCCCN)NC(=O)[C@H](Cc1ccccc1)NC(=O)[C@H](Cc1ccccc1)NC(=O)[C@H](CCCCN)NC(=O)[C@H](CCCCN)NC(=O)[C@H](Cc1ccccc1)NC(=O)[C@H](Cc1ccccc1)NC(=O)[C@H](CCCCN)NC(=O)[C@@H](N)Cc1ccccc1)C(=O)O` [FKFFKKFFKKWK], the MIC in [1] was 9.36 µM (≈ 16 µg/mL); in experiment [2] it was 18.7 µM (≈ 32 µg/mL); in experiment [3], 18.7 µM (≈ 32 µg/mL).

With `CC[C@H](C)[C@H](NC(=O)[C@H](C)NC(=O)[C@H](CCCCN)NC(=O)[C@H](CCCCN)NC(=O)[C@@H](NC(=O)CNC(=O)[C@H](CCC(=O)O)NC(=O)[C@H](CC(C)C)NC(=O)[C@H](CC(C)C)NC(=O)[C@H](CCCCN)NC(=O)CNC(=O)[C@H](Cc1c[nH]c2ccccc12)NC(=O)[C@H](Cc1ccccc1)NC(=O)CN)C(C)C)C(N)=O` [GFWGKLLEGVKKAI], the MIC in experiment [4] worked out at 15 µM (≈ 23.2 µg/mL); in the experiment on Listeria grayi DSM 20601, 8 µM (≈ 12.4 µg/mL); in experiment [5] it was 8 µM (≈ 12.4 µg/mL); in experiment [6], 15 µM (≈ 23.2 µg/mL); against Escherichia coli D31, 15 µM (≈ 23.2 µg/mL).

Take `CC[C@H](C)[C@H](NC(=O)[C@@H](NC(=O)[C@@H]1CCCN1C(=O)[C@@H](NC(=O)[C@@H]1CCCN1C(=O)[C@H](CCCCN)NC(=O)[C@H](CCCCN)NC(=O)[C@H](CO)NC(=O)CN)C(C)C)[C@@H](C)CC)C(=O)N[C@@H](Cc1ccc(O)cc1)C(=O)N[C@H]1CSSC[C@@H](C(=O)N[C@@H](CCC(N)=O)C(=O)N[C@@H](CCCN=C(N)N)C(=O)N[C@@H](CCSC)C(=O)O)NC(=O)[C@H](CCCCN)NC(=O)CNC(=O)[C@H](CCCN=C(N)N)NC(=O)[C@H](CCCN=C(N)N)NC(=O)[C@H](CC(N)=O)NC1=O` [GSKKPVPIIYCNRRGKCQRM]: the MIC against Escherichia coli HB101 stood at 0.64 µM (≈ 1.49 µg/mL); in the experiment on Salmonella typhimurium, 1.3 µM (≈ 3.03 µg/mL); against Bacillus subtilis, 5.2 µM (≈ 12.1 µg/mL); with Staphylococcus aureus it was 10.4 µM (≈ 24.3 µg/mL); in the experiment with Pseudomonas aeruginosa, 2.6 µM (≈ 6.07 µg/mL).

As to `CC(C)[C@H](NC(=O)[C@H](CCCCN)NC(=O)[C@H](Cc1ccccc1)NC(=O)[C@@H](NC(=O)[C@@H](NC(=O)[C@H](CCCCN)NC(=O)[C@@H](N)Cc1cnc[nH]1)C(C)C)C(C)C)C(=O)N[C@@H](CCCCN)C(=O)N[C@@H](Cc1ccccc1)C(=O)N[C@@H](Cc1cnc[nH]1)C(=O)O` [HKVVFKVKFH], the minimum inhibitory concentration (MIC) was no less than 78.8 µM in experiment [7]; 15 µM (≈ 19 µg/mL) in experiment [8]; 7.88 µM (≈ 10 µg/mL) in experiment [9]; 8.67 µM (≈ 11 µg/mL) in [10]; no less than 49.7 µM in experiment [11]; 12.6 µM (≈ 16 µg/mL) in experiment [12].

For the molecule `CC[C@H](C)[C@H](N)C(=O)N[C@@H](CC(C)C)C(=O)N[C@@H](CO)C(=O)N[C@@H](CC(C)C)C(=O)N[C@@H](CCCN=C(N)N)C(=O)N[C@@H](Cc1c[nH]c2ccccc12)C(=O)N[C@@H](CCCN=C(N)N)C(=O)N[C@@H](Cc1c[nH]c2ccccc12)C(=O)N[C@@H](Cc1c[nH]c2ccccc12)C(=O)N[C@@H](CCCCN)C(=O)N[C@@H](Cc1c[nH]c2ccccc12)C(=O)N[C@@H](CCCCN)C(=O)N[C@@H](CCCCN)C(=O)O` [ILSLRWRWWKWKK], the MIC in [13] was no less than 32 µM; in [14] it was 2 µM (≈ 3.77 µg/mL); in experiment [15], 8 µM (≈ 15.1 µg/mL); against Streptococcus mutans, 4 µM (≈ 7.55 µg/mL); in the experiment on Streptococcus pyogenes, 4 µM (≈ 7.55 µg/mL); in experiment [16], 32 µM (≈ 60.4 µg/mL). For the same molecule, the MIC in the experiment with Streptococcus agalactiae was 4 µM (≈ 7.55 µg/mL); in experiment [17], 4 µM (≈ 7.55 µg/mL); in experiment [18], no less than 32 µM; in experiment [19] it was 68 µM (≈ 128 µg/mL); in the experiment with Klebsiella pneumoniae, 32 µM (≈ 60.4 µg/mL).

Consider `CC[C@H](C)[C@H](N)C(=O)N[C@@H](CCCN=C(N)N)C(=O)N[C@H](C(=O)N[C@@H](CCCN=C(N)N)C(=O)N[C@H](C(=O)N[C@@H](CCCN=C(N)N)C(=O)N[C@H](C(=O)N[C@@H](CCCN=C(N)N)C(N)=O)[C@@H](C)CC)[C@@H](C)CC)[C@@H](C)CC` [IRIRIRIR], for which the MIC in experiment [15] was found to be 7.12 µM (≈ 7.79 µg/mL); in [20], 6.25 µM (≈ 6.84 µg/mL); in [21] it was 3.56 µM (≈ 3.9 µg/mL); in experiment [22] it was 6.25 µM (≈ 6.84 µg/mL); in [23], 6.25 µM (≈ 6.84 µg/mL); in experiment [24], 28.6 µM (≈ 31.3 µg/mL). The MIC worked out at 6.25 µM (≈ 6.84 µg/mL) in experiment [10] and 12.5 µM (≈ 13.7 µg/mL) in experiment [25].

`CC[C@H](C)[C@H](NC(=O)[C@H](CCCCN)NC(=O)[C@H](Cc1c[nH]c2ccccc12)NC(=O)[C@H](Cc1c[nH]c2ccccc12)NC(=O)[C@@H](N)CCCCN)C(=O)N[C@@H](Cc1c[nH]c2ccccc12)C(=O)N[C@@H](CCCN=C(N)N)C(=O)N[C@@H](Cc1c[nH]c2ccccc12)C(=O)N[C@@H](CCCN=C(N)N)C(=O)O` [KWWKIWRWR]: the MIC was 5.54 µM (≈ 8 µg/mL) against Candida albicans C627; no less than 44.3 µM in [26]; 22.1 µM (≈ 32 µg/mL) in experiment [27]; 22.1 µM (≈ 32 µg/mL) in experiment [28]; no less than 88.6 µM in experiment [29]; 11.1 µM (≈ 16 µg/mL) in experiment [19]. In addition, the MIC in [30] was no less than 44.3 µM; in [31] it was 11.1 µM (≈ 16 µg/mL).

On to `CSCC[C@H](NC(=O)[C@H](CCCCN)NC(=O)[C@H](CCCCN)NC(=O)[C@H](CC(C)C)NC(=O)[C@H](CC(C)C)NC(=O)[C@H](CCCCN)NC(=O)[C@H](CCCCN)NC(=O)[C@H](CC(C)C)NC(=O)[C@@H](N)CC(C)C)C(N)=O` [LLKKLLKKM], for which the MIC in [32] was no less than 112 µM; in [33], no less than 449 µM.
